Laboratory results reported in patent publication US20040028639A1, “Cholesterol sulfate compositions for enhancement of stratum corneum function” (priority 1999, published 2004).
Where a name gives a salt, the structure may show the parent alone.

How the values were obtained:
Matek skin equivalents = test: stratum corneum thickness and cohesion in skin equivalents (histology); format: cell-based
Procedure: FIG. 1 illustrates the condition of stratum corneum thickness under different cholesterol sulfate treatment regimens, as described in Example I: (A) control (no treatment); (B) 1% ethanol vehicle control; (C) cholesterol sulfate, 0.01 μg/ml; (D) cholesterol sulfate, 0.1 μg/ml; (E) cholesterol sulfate, 1 μg/ml; (F) cholesterol sulfate 10 μg/ml.
This example illustrates the ability of cholesterol sulfate to retard desquamation and maintain stratum corneum thickness.
Matek skin equivalents are obtained and prepared for use in accordance with the supplier's protocol. Equilibrated skins are treated topically with dilutions of cholesterol sulfate. Cholesterol sulfate is solubilized 1 mg/ml in ethanol, and serially diluted 10-fold to yield doses of 0.01, 0.1, 1 and 10 μg/ml. Each dose is added topically to an equivalent, using a 100 μl volume. Treatment is repeated daily along with media replacement over a three day period. One sample is treated with 1% ethanol, representing a vehicle control. Following treatment, equivalents are fixed according to standard protocol, and sent for histological preparations. FIGS. 1A-F show stained sections of the two controls plus the treatment samples. […] Some compaction is seen in the ethanol treated sample, which is believed due to dehydration of the sample combined with lipid removal.

[1] = system: skin (back of hand), stratum corneum; test: skin flakiness by D-Squame Discs Method and Image Analysis; format: in vivo, human; conditions: 0.5% cholesterol sulfate in a water and oil emulsion base, right hand, twice a day
Procedure: A study is conducted to determine the effect of cholesterol sulfate on skin flakiness, as an indicator of its effect in reducing desquamation. Fifteen subjects between the ages of 21 and 65 years are selected for the study. The subjects report for the study without moisturizers or any other products on their hands and their baseline measurements are taken. The subjects are given a product containing 0.5% cholesterol sulfate in a water and oil emulsion base to take home and self-administer on their right hands only, twice a day in the morning after washing and in the evening at least 15 minutes before bedtime for four weeks. The left hand serves as the untreated control site. The subjects are only allowed to use the test product and specifically log its use in a daily diary. At the end of two and four weeks the subjects return for testing without applying the product for at least 12 hours and they are re-evaluated under the same conditions.
Evaluation of flakiness is determined via the D-Squame Discs Method and Image Analysis. Briefly, four D-Squame discs are firmly pressed on the back of each hand with hand held uniform pressure device and removed by gently pulling away from the skin. […] Desquamation is evaluated from the D-Squame discs via the image analyzer. […]
An OPTIMA image analyzer is used to evaluate skin flakiness. […] The average Gray Value corresponding to the sample density is measured. […]

## CC(C)CCC[C@@H](C)[C@H]1CC[C@H]2[C@@H]3CC=C4C[C@@H](OS(=O)(=O)O)CC[C@]4(C)[C@H]3CC[C@]12C [cholesterol sulfate]
Matek skin equivalents; 0.01, 0.1, 1 and 10 μg/ml, 100 μl topically, daily over three days, vs media control, effect increases with amount
  organization and cohesion of the stratum corneum (stained sections): gradual increase in organization and cohesion of the stratum corneum
Matek skin equivalents; application to skin cells, FIGS. 1C-F (0.01-10 μg/ml)
  thickness of the layers of the stratum corneum: distinct, dose-dependent, increase in the thickness
[1]; after 4 weeks
  decrease in flakiness relative to baseline: 24.1%
[1]; after two weeks
  decrease in flakiness relative to baseline: 22.5%
